Measurements taken from US20190358242A1, “COMPOSITIONS, KITS, AND METHODS TO INDUCE ACQUIRED CYTORESISTANCE USING STRESS PROTEIN INDUCERS” (FRED HUTCHINSON CANCER RESEARCH CENTER, priority 2017, published 2019).
Where “and” joins values, the source holds several entries; their conditions need not be identical. Equal values may be shown once.

Tests used:
IL-10 protein = assay: Liver IL-10 protein (ELISA); type: in vivo, CD-1 mice
Experimental: (§1) Thirty-two mice were divided into 4 equal groups: (1) control mice; (2) mice treated with 1 mg of N-Mgb injection (as a bolus through the tail vein); (3) mice treated with […] of SnPP (via tail vein); and (4) mice treated with combined N-Mgb 1 SnPP. After either 4 hours (n=16) or 18 hours (n=16), the mice were deeply anesthetized with pentobarbital (50 mg/kg), the abdomen was opened through a midline abdominal incision, and the kidneys were removed. To determine potential effects on extrarenal organs, a liver lobe and the heart were also removed. The tissues were iced and then extracted for protein and RNA (RNeasy Plus Mini; Qiagen, Valencia, Calif.) and subjected to enzyme linked immunosorbent assay (ELISA) and reverse transcriptase polymerase chain reaction (RT-PCR) for HO-1, haptoglobin, and IL-10 protein and messenger RNAs (mRNAs). Zager et al. J Am Soc Nephrol 2014; 25:998-1012; Zager et al. Am J Physiol 2012; 303:F139-48. As an assessment of renal function, control mice and the 18 hour after N-Mgb+SnPP-treated mice had blood urea nitrogen (BUN) and plasma creatinine levels measured. Additionally, transverse 10% formalin fixed kidney sections ([…]) were cut and stained with hematoxylin and eosin (H&E) and periodic acid Schiff (PAS) to further assess potential injury.

maleate model of AKI = assay: Maleate model of AKI (800 mg/Kg), FeS/SnPP and FeS/B12; type: in vivo, CD-1 mice; conditions: IV 18 hrs before 800 mg/Kg maleate; 18 hrs post maleate; 1 mg FeS, 1 μmole SnPP or B12
Description: Effects of Fe sucrose (FeS)/tin protoporphyrin (SnPP) on AKI severity. Maleate model of AKI. When injected into rodents, maleate undergoes relatively selective proximal tubule cell uptake via organic anion transporters. Once intracellular accumulation occurs, maleate is a preferred substrate for succinyl-CoA:3-oxoacid CoA transferase. […] Ample levels of CoA are essential for fatty acid “activation”, allowing for their subsequent metabolism through the Krebs cycle, yielding ATP. In the absence of this process, proximal tubule ATP depletion and cell injury result. Additionally, maleate conjugates the sulfhydryl group of glutathione (GSH), culminating in GSH depletion and potential oxidant tubular stress.
The following experiment tested whether FeS, SnPP or combined FeS+SnPP can mitigate this form of acute kidney injury (AKI). Twenty seven mice were subjected to 200 μL IV tail injections of one of the following: 1) vehicle (phosphate buffered saline, PBS; n, 10); 2) 1 mg FeS (American Regent (Shirley, N.Y.; n, 3); 3) 1 μmole SnPP (Frontier Scientific, Logan, Utah; n 7), or FeS+SnPP, n, 7). […] The severity of kidney injury was assessed by determining plasma blood urea nitrogen (BUN) and plasma creatinine (PCr) concentrations.
Maleate model of AKI. […] The severity of AKI was determined 18 hrs post maleate injection by terminal BUN and PCr assessments.

IL-10 mRNA [1] = assay: Kidney IL-10 mRNA (RT-PCR); type: in vivo, CD-1 mice
Experimental: as §1

IL-10 mRNA [2] = assay: Cardiac IL-10 mRNA (RT-PCR); type: in vivo, CD-1 mice
Experimental: as §1

HO-1 mRNA [3] = assay: SnPP vs. SnMeP: renal cortical HO-1 mRNA induction (RT-PCR); type: in vivo, mice; conditions: 1 umole, 4 hrs post injection, n 3
Description: FIG. 28. Comparison of SnPP vs. SnMeP effects on renal cortical HO-1 and haptoglobin mRNA induction 4 hrs post agent injection. Mice received either 1 umole tin protoporphyrin (SnPP), tin mesoporphyrin (SnMeP), or vehicle (n, 3 each) and 4 hrs renal cortical RNA was extracted and subjected to RT-PCR.

HO-1 mRNA [4] = assay: Renal HO-1 mRNA (RT-PCR, HO-1/GAPDH) after IV myoglobin, SnPP or both; type: in vivo, CD-1 mice; conditions: kidney, 4 hr post IV injection
Description: The Glycerol Model of AKI. This is a widely used model of rhabdomyolysis-induced AKI that has been employed worldwide for 50 years. The model was used to test whether prophylactic interventions confer protection against AKI. Basically, the protocol is as follows: Male CD-1 mice (35-45 grams), obtained from Charles River Laboratories, Wilmington, Mass. were studied. Mice were maintained under standard vivarium conditions and generally housed for 1-3 weeks prior to study. The mice were placed in a cylindrical restraining cage, and then were given a tail vein injection of the test substances (see below) or test substance vehicle. The mice were then returned to their cages. Eighteen hours (hrs) later, the mice were briefly anesthetized by isoflurane inhalation, and given an intramuscular injection of hypertonic (50%) glycerol in a dose of 9 ml/Kg body weight. The dose is divided in two, with half injected into the muscle of each of the hind limbs. The mice were then returned to their cages. Eighteen hrs later, the mice were deeply anesthetized with pentobarbital (50-100 mg/Kg), the abdominal cavity was opened through a midline abdominal incision, a blood sample was obtained from the abdominal vena cava and the kidneys were resected. A kidney cross section was obtained and fixed in formalin for subsequent histologic analysis. The terminal blood samples were analyzed for BUN and creatinine, using commercially available assay kits. The remaining kidney tissue was subjected to cortical dissection, and the cortical tissues were then extracted for protein and RNA. The protein samples were saved for analysis of HO-1 levels, and the RNA samples were subjected to RT-PCR to quantify HO-1 mRNA as well as levels of other stress gene mRNAs (e.g. NGAL, haptoglobin, hemopexin, hepicidin).
Myoglobin+SnPP: To 5 mg of dry myoglobin was added 0.9 ml of PBS+0.1 ml of a stock SnPP solution (50 umole/ml). The resulting final concentrations were 5 mg/ml myoglobin+5 umoles/ml of SnPP. The tail vein was injected with 200 ul of this solution, which equals 1 mg myoglobin+1 umole SnPP. […]
[…] To confirm that the myoglobin+SnPP has a synergistic effect in inducing HO-1 mRNA and HO-1 protein levels, each of the above combinations have been administered alone via tail vein injection. […] For additional information regarding methods, see Zager et al., Am J Physiol Renal Physiol. 2014 Jul. 30. Pii.

haptoglobin mRNA = assay: Kidney haptoglobin mRNA (RT-PCR); type: in vivo, CD-1 mice
Experimental: as §1

HO-1 protein = assay: Liver HO-1 protein (ELISA); type: in vivo, CD-1 mice; design: unit not given beside the values
Experimental: as §1

[5] = 4 h after IV injection, N-Mgb 1 mg, SnPP 1 mmol [sic]

Compound: C=Cc1c2[n-]c(c1C)/C=c1\[n-]/c(c(C)c1C=C)=C\c1[n-]c(c(CCC(=O)O)c1C)/C=c1\[n-]c(c(C)c1CCC(=O)O)=C2.[Sn+4] [SnPP, tin protoporphyrin]
- Liver protein IL-10 (IL-10 protein; 4 h after IV injection): 485 ± 47
- Liver protein IL-10 (IL-10 protein; 18 h after IV injection): 8198 ± 725
- Severity of maleate-induced AKI (BUN/PCr), in words (maleate model of AKI): Neither SnPP alone nor FeS alone significantly altered the severity of renal injury
- Impact on renal IL-10 mRNA levels, in words (IL-10 mRNA [1]; 4-hour time point, agent alone): either minimal or no impact
- Kidney mRNA IL-10 (IL-10 mRNA [1]; [5]): 0.39 ± 0.15
- Kidney mRNA cortex IL-10 (IL-10 mRNA [1]; 18 h after IV injection): 0.18 ± 0.09
- Cardiac mRNA IL-10 (IL-10 mRNA [2]; 4 h after IV injection): 0.58 ± 0.16
- Cardiac mRNA IL-10 (IL-10 mRNA [2]; 18 h after IV injection): 0.53 ± 0.10
- Renal cortical HO-1 mRNA induction (HO-1 mRNA [3]): raised
- HO-1/GAPDH mRNA, Average (HO-1 mRNA [4]): 6.94
- HO-1/GAPDH mRNA, individual mice (HO-1 mRNA [4]): 9.72 and 8.25 and 6.95 and 2.85
- Kidney mRNA Haptoglobin (haptoglobin mRNA; [5]): 0.19 ± 0.01
- Kidney mRNA cortex Haptoglobin (haptoglobin mRNA; 18 h after IV injection): 0.23 ± 0.08
- Liver protein HO-1 (HO-1 protein; 4 h after IV injection): 7.4 ± 0.7
- Liver protein HO-1 (HO-1 protein; 18 h after IV injection): 18 ± 2.5
